Results on 3 compounds are retold here after PubChem BioAssay AID652156 (NMMLSC, 2013).

This experiment relates to ER-HoxA9 myeloid cells, GFP+/MAC1+ differentiation, flow cytometry. Description: myeloid differentiation promoters in ER-HoxA9 cells, dose response, cell-based, flow cytometry, Powder Set01 (AID 652156). A general note: In flow cytometry, cells or beads pass a laser one at a time.

The structures appear in SMILES notation. pEC50: −log10 of the molar value.

For orientation: pEC50 means −log10 of the EC50, conventionally taken in molar units. For the compound `O=C(O)c1cccnc1Nc1ccc(Cl)cc1`, the pEC50 is 5.88. Take `Cc1ccc(Nc2nc(=O)c3cccnc3s2)c(Br)c1`: the pEC50 was 6.03. Consider `O=C(CCNC(=O)c1ccc(Cl)cc1)NC1CCCc2ccccc21` (stereo not drawn), for which the pEC50 was 5.68.
